The test system of series [1] is sodium channel. As to the kind of experiment: veratrine-evoked uptake of [14C]guanidine into rat forebrain synaptosomes ([14C]guanidine flux). The series is classed as biochemical. The following applies: for Hill (uptake of [14C]guanidine): slope.
Series [2] has as its system sodium channel. In kind it is binding, rat.
In series [3] the target is T1, DiHydroFolate Reductase (DHFR) (Rattus norvegicus, UniProt Q920D2).
T1 construct: from tissue; host or cells: rat liver homogenate supernatant (47,500 x g)
T1 sequence (Q920D2 1-187): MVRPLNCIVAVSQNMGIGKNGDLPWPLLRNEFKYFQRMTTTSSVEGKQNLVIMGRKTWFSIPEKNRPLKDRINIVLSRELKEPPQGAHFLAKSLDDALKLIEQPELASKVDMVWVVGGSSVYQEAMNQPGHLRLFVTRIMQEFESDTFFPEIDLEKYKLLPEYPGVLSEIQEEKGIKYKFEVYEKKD
Kind of series: inhibition of binding of [3H]methotrexate to rat liver homogenate supernatant. The conditions noted are these: for inhibition at 10 µM / inhibition at 99 µM / inhibition at 50 µM: read-out: [3H]methotrexate binding Inhibition (% @ assay conc'n); for inhibition at 99 µM: assay concentration 99 μM; for IC50: rat liver supernatant; for inhibition at 50 µM: assay concentration 50 μM.

Series [4] addresses T2, hERG potassium channel (Homo sapiens, UniProt Q12809).
The target of series [5] is T2, hERG potassium channel. Kind of series: in vitro.
The target in series [6] is T2, hERG potassium channel. Kind of series: inhibition of binding of [3H]astemizole to cell membranes expressing hERG. For orientation: hERG is a cardiac potassium channel; its block is linked to QT prolongation.
The subject of series [7] is 0.4 mm slices of rat hippocampus. As to the kind of experiment: hippocampal slice assay: ATP after iodoacetate metabolic insult. The following applies: Rattus norvegicus; for Emax: read-out: Max Protection (% v TTX); for EC50: read-out: hippocampal slice EC50 (μM).
Where [8] appears, read: Table 3, rat forebrain synaptosomes, read-out: [14C]guanidine flux Mean (IC50: μM).
[9] abbreviates: Table 4, tissue prep'n Homogenate, read-out: [3H]BTX-B binding Mean (IC50: μM).
Setting [10] is: Table 4, tissue prep'n Synaptosomes, read-out: [3H]BTX-B binding Mean (IC50: μM).
The mark [11] stands for this setting: Table 5, read-out: [14C]guanidine flux IC50.
[12] abbreviates: Table 5, Synaptosome data, read-out: [3H]BTX-B IC50.
Setting [13] is: hERG / [3H]BTX-B selectivity, ratio of extrapolated hERG IC50 to [3H]BTX-B IC50 (synaptosomes).
Setting [14] is: hERG / [14C]guanidine flux selectivity, ratio of extrapolated hERG IC50 to [14C]guanidine flux IC50.
Where [15] appears, read: Table 8, read-out: IC50 (μM) (uptake of [14C]guanidine).

The melting point is the temperature, or range, at which the solid turns liquid. Broadly, the IC50 is the point on the concentration scale where inhibition reaches its midpoint. What is called inhibition is the change of the read-out against control, counted positive when it falls. What is called EC50 is the concentration at which the effect is half-maximal.

SMILES strings stand for the structures. Values joined by “and” are separate entries in the source; they are usually repeats but may differ in a detail not shown here. Equal entries are not always repeated. Structures can show the parent of a compound that is named as a salt. Where two headings read alike, the source gives them in different places. Where only a bound is given, the exact number is not on record here.

T2 sequence (Q12809 whole entry): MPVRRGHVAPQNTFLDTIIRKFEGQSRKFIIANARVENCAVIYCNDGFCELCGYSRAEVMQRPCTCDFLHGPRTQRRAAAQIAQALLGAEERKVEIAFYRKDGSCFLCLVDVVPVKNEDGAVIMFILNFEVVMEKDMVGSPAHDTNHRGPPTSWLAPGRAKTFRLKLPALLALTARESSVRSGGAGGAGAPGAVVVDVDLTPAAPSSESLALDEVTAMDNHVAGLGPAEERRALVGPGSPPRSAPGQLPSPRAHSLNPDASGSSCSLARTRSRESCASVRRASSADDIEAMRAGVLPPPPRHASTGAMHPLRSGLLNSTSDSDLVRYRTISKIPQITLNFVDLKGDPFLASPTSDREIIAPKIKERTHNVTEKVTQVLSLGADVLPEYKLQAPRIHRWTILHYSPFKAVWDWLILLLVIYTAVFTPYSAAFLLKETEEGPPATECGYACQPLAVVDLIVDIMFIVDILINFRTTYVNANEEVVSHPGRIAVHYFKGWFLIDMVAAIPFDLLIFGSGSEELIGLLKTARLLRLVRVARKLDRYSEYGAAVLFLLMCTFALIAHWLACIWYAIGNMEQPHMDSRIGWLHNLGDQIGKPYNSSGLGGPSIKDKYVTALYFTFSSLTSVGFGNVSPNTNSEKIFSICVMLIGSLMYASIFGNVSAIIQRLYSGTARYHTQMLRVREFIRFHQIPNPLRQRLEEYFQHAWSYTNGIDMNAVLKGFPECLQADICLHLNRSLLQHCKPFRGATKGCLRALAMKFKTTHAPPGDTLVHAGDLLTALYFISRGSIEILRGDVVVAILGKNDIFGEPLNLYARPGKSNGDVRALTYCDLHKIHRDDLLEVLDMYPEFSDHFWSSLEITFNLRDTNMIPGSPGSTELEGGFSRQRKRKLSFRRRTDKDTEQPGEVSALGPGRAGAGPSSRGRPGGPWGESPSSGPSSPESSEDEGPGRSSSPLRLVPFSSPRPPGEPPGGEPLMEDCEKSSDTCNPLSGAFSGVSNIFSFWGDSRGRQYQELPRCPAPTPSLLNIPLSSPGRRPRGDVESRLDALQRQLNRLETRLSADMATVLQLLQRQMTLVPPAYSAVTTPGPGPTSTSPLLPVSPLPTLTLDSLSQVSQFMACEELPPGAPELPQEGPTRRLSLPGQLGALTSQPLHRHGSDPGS

Take `Cn1nc(-c2ccc(Cl)cc2Cl)c(N)nc1=N` (as salt: methanesulfonate) [Example 45, 5(3)-Amino-6-(2,4-dichlorophenyl)-2,3(2,5)-dihydro-3(5)-imino-2-methyl-1,2,4-triazine methanesulfonate]: the melting point fell in the range of 283 to 285 °C.

`Cn1nc(-c2ccccc2)c(N)nc1=N` (as salt: methanesulfonate) [Example 46, 5(3)-Amino-6-phenyl-2,3(2,5)-dihydro-3(5)-imino-2-methyl-1,2,4-triazine methanesulfonate] gave a melting point of 230 to 232 °C.

`CCn1nc(-c2ccccc2)c(N)nc1=N` (as salt: methanesulfonate) [Example 47, 5(3)-Amino-6-phenyl-2,3(2,5)-dihydro-3(5)-imino-2-ethyl-1,2,4-triazine methanesulfonate] displayed a melting point of 230 to 232 °C.

As to `Cn1nc(-c2cc(Cl)ccc2Cl)c(N)nc1=N` (as salt: methanesulfonate) [Example 48, 5(3)-Amino-6-(2,5-dichlorophenyl)-2,3(2,5)-dihydro-3(5)-imino-2-methyl-1,2,4-triazine methanesulfonate], the melting point lay in the range of 297 to 298 °C.

Turning to `CCn1nc(-c2cc(Cl)ccc2Cl)c(N)nc1=N` (as salt: methanesulfonate) [Example 49, 5(3)-Amino-6-(2,5-dichlorophenyl)-2,3(2,5)-dihydro-3(5)-imino-2-ethyl-1,2,4-triazine methanesulfonate], the melting point lay within 264 to 265 °C.

For `Cn1nc(-c2cc(Cl)cc(Cl)c2)c(N)nc1=N` (as salt: methanesulfonate) [Example 53, 5(3)-Amino-6-(3,5-dichlorophenyl)-2,3(2,5)-dihydro-3(5)-imino-2-methyl-1,2,4-triazine methanesulfonate], the melting point is 234 to 236 °C.

Consider `CCn1nc(-c2cc(Cl)cc(Cl)c2)c(N)nc1=N` (as salt: methanesulfonate) [Example 54, 5(3)-Amino-6-(3,5-dichlorophenyl)-2,3(2,5)-dihydro-3(5)-imino-2-ethyl-1,2,4-triazine methanesulfonate], for which the melting point lay in the range of 217 to 219 °C.

`N=c1nc(N)c(-c2cc(Cl)cc(Cl)c2Cl)nn1CCF` (as salt: methanesulfonate) [Example 55, 5(3)-Amino-6-(2,3,5-trichlorophenyl)-2,3(2,5)-dihydro-3(5)-imino-2-(2-fluoroethyl)-1,2,4-triazine methanesulfonate] showed a melting point of 212 to 214 °C.

With `CC(C)n1nc(-c2cccc(Cl)c2Cl)c(N)nc1=N` [Example 4, 5(3)-Amino-6-(2,3-dichlorophenyl)-2,3(2,5)-dihydro-3(5)-imino-2-isopropyl-1,2,4-triazine], the IC50 was 4 µM with sodium channel [1] (setting [8]); 0.6 µM with sodium channel [2] (setting [9]); 1.5 µM in the series with sodium channel [2] (setting [10]); 18.6 µM and 19.4 µM at hERG potassium channel [6]. Besides, the inhibition at 10 µM in series [3] (assay concentration 10 μM) was -1%; against hERG potassium channel [5] (hERG % inhibition @ 10 μM), 35%. Also, in series [3], the inhibition at 99 µM was determined as 0%. The “hERG / [14C]guanidine flux selectivity” value at hERG potassium channel [4] (human) is reported as 6.7. The selectivity ratio on hERG potassium channel [5] (hERG / [14C]guanidine flux selectivity) turned out to be 6.6.

`N=c1nc(N)c(-c2cccc(Cl)c2Cl)nn1CCO` [Example 5, 5(3)-Amino-6-(2,3-dichlorophenyl)-2,3(2,5)-dihydro-3(5)-imino-2-(2-hydroxyethyl)-1,2,4-triazine]: the IC50 in the series on sodium channel [1] (setting [8]) is 172 µM; in the series on sodium channel [1] (setting [11]) it was 2.1 µM; in the series with sodium channel [2] (setting [9]), 7.2 µM; with sodium channel [2] (setting [10]), 25.7 µM; with sodium channel [2] (setting [12]) it was 1.7 µM; against hERG potassium channel [4], 7.2 µM. Moreover, the “[3H]methotrexate binding Inhibition (% @ assay conc'n)” value in series [3] (assay concentration 10 μM) is −1%; in series [3] (assay concentration 101 μM), 1%. Besides, the “hERG / [14C]guanidine flux selectivity” value on hERG potassium channel [4] amounted to 3.5. The “hERG / [3H]BTX-B selectivity” value on hERG potassium channel [6] (ratio of extrapolated hERG IC50 to [3H]BTX-B IC50 (synaptosomes)) is recorded as 4.3.

Regarding `COc1ccc(Cn2nc(-c3cccc(Cl)c3Cl)c(N)nc2=N)cc1` [Example 19, 5(3)-Amino-6-(2,3-dichlorophenyl)-2,3(2,5)-dihydro-3(5)-imino-2-(4-methoxy)phenylmethyl-1,2,4-triazine], the melting point is 212 to 215 °C. The IC50 with sodium channel [1] (setting [8]) worked out at 5 µM. Moreover, the inhibition at 10 µM in series [3] (assay concentration 10 μM) is -2%. The inhibition at 99 µM in series [3] was -3%.

For `Cn1nc(-c2cc(Cl)cc(Cl)c2Cl)c(N)nc1=N` [Example 32, 5(3)-Amino-6-(2,3,5-trichlorophenyl)-2,3(2,5)-dihydro-3(5)-imino-2-methyl-1,2,4-triazine], the IC50 was 6.4 µM in the series on sodium channel [1] (setting [8]); 6.4 µM in the series on sodium channel [1] (setting [11]); 1.9 µM in the series with sodium channel [2] (setting [10]); 1.9 µM in the series on sodium channel [2] (setting [12]); greater than 250 µM in series [3]; 20.3 µM on hERG potassium channel [6]. In addition, the inhibition at 10 µM on hERG potassium channel [5] is 33%. Besides, the selectivity ratio was 10.7 on hERG potassium channel [5] (setting [13]) and 3.2 on hERG potassium channel [5] (setting [14]). In series [7], the Emax was found to be 65 ± 7%. Also, in series [7], the EC50 is 5.9 µM.

In the case of `CCCn1nc(-c2cc(Cl)cc(Cl)c2Cl)c(N)nc1=N` [Example 34, 5(3)-Amino-6-(2,3,5-trichlorophenyl)-2,3(2,5)-dihydro-3(5)-imino-2-propyl-1,2,4-triazine], the IC50 was 1.3 µM in the series on sodium channel [1] (setting [8]); 1.3 µM with sodium channel [1] (setting [11]); 0.5 µM with sodium channel [2] (setting [10]); 0.5 µM with sodium channel [2] (setting [12]); greater than 300 µM in series [3]; 6.1 µM at hERG potassium channel [6]. Besides, the inhibition at 10 µM at hERG potassium channel [5] turned out to be 62%. The selectivity ratio was 12.3 on hERG potassium channel [5] (setting [13]) and 4.7 on hERG potassium channel [5] (setting [14]). Further, the Emax in series [7] came to 37%. Moreover, the EC50 in series [7] worked out at 9.8 µM.

Regarding `Nc1nnc(-c2cccc(F)c2Cl)c(N)n1` [Example 40, 2-chloro-3-fluorophenyl-1,2,4-triazine-3,5-diamine], the melting point was 244 to 246 °C. The IC50 with sodium channel [1] (setting [8]) turned out to be 834 µM. Further, the IC50 with sodium channel [2] (setting [10]) stood at 283 µM. Further, in series [3], the IC50 amounted to 589 µM.

With `Nc1nnc(-c2cc(Cl)ccc2Cl)c(N)n1` [Example 41, 3,5-Diamino-6-(2,5-dichlorophenyl)-1,2,4-triazine], the melting point fell in the range of 228 to 230 °C. For the same molecule, the IC50 in the series with sodium channel [1] (setting [8]) worked out at 525 µM. Further, the inhibition at 50 µM in series [3] stood at 93%.

In turn, `Nc1nnc(-c2cc(Cl)cc(Cl)c2)c(N)n1` [Example 42, 3,5-Diamino-6-(3,5-dichlorophenyl)-1,2,4-triazine] displayed a melting point of 223 to 225 °C. Moreover, the IC50 in the series with sodium channel [1] (setting [8]) stood at 155 µM. In series [3], the inhibition at 50 µM is 99%.

Molecule `CCn1nc(-c2cc(Cl)cc(Cl)c2Cl)c(N)nc1=N` [Example 50] showed a melting point of 269 to 271 °C. Moreover, in the series on sodium channel [1] (Table 8), the “pIC50 (uptake of [14C]guanidine)” value worked out at 5.52 ± 0.03 and the “Hill (uptake of [14C]guanidine)” value is 0.93. Besides, in the series on sodium channel [1] (setting [15]), the IC50 is 3 µM.

In turn, `Nc1nnc(-c2ccccc2OC(F)(F)F)c(N)n1` [Example 51, 3,5-Diamino-6-(2-trifluoromethoxyphenyl)-1,2,4-triazine] came in with a melting point of 148 to 150 °C. In the series on sodium channel [1] (Table 8), the “pIC50 (uptake of [14C]guanidine)” value amounted to 2.76 ± 0.11 and the “Hill (uptake of [14C]guanidine)” value worked out at 1.22. In addition, the IC50 in the series with sodium channel [1] (setting [15]) was determined as 1740 µM.
